Reference: ChEMBL document CHEMBL5257089, “Gamabufotalin Induces Apoptosis and Cytoprotective Autophagy through the mTOR Signaling Pathway in Hepatocellular Carcinoma” (J Nat Prod, 2023)
Calls of active or inactive are those of the source. The calls are words filed in the database; no cut-off is given here.

What was measured:
Huh-7 [1] = assay: Induction of apoptosis in human Huh-7 cells assessed as late apoptotic cells at 10 nM incubated for 48 hrs by Annexin V-FITC/PI staining based flow cytometry method (reference value: 4.7%); assay type: functional
Hep 3B2 [2] = assay: Induction of autophagic flux in human Hep3B cells assessed as increase in number of autophagic vesicles at 10 nM by transmission electron microscopic analysis; assay type: functional, cell-based
Huh-7 [3] = assay: Induction of apoptosis in human Huh-7 cells assessed as necrotic cells at 10 nM incubated for 48 hrs in presence of gamabufotalin by Annexin V-FITC/PI staining based flow cytometry method (reference value: 1.0%); assay type: functional
Huh-7 [4] = assay: Induction of apoptosis in human Huh-7 cells assessed as viable cells at 10 nM incubated for 48 hrs in presence of gamabufotalin by Annexin V-FITC/PI staining based flow cytometry method (reference value: 91.5%); assay type: functional; details: read-out: Activity
Huh-7 [5] = assay: Induction of apoptosis in human Huh-7 cells assessed as late apoptotic cells at 10 nM incubated for 48 hrs in presence of gamabufotalin by Annexin V-FITC/PI staining based flow cytometry method (reference value: 4.7%); assay type: functional
Hep 3B2 [6] = assay: Induction of autophagic flux in human Hep3B cells harbouring mCherry-egfp-LC3 assessed as reduction in number of red puncta ratio at 10 nM incubated for 15 mins in presence of gamabufotalin by laser scanning confocal microscopic analysis; assay type: functional, cell-based
Hep 3B2 [7] = assay: Antitumor activity against human Hep3B cells xenografted in nude mouse model assessed as reduction in Ki-67 index at 5 mg/kg,ip administered every second day for 3 weeks by immunohistochemical analysis; assay type: functional, organism-based
Huh-7 [8] = assay: Induction of autophagy in human Huh-7 cells assessed as upregulation of p62 at 25 uM incubated for 48 hrs in presence of 4,6-dimorpholino-N-(4-nitrophenyl)-1,3,5-triazin-2-amine by immunoblot analysis; assay type: functional, cell-based
Huh-7 [9] = assay: Induction of apoptosis in human Huh-7 cells assessed as reduction in Bcl-2 level at 25 nM incubated for 48 hrs in presence of chloroquine by immunoblot analysis; assay type: functional, cell-based
Huh-7 [10] = assay: Induction of apoptosis in human Huh-7 cells assessed as early apoptotic cells at 25 nM incubated for 48 hrs in presence of chloroquine by Annexin V-FITC/PI staining based flow cytometry method (reference value: 2.8%); assay type: functional
Hep 3B2 [11] = assay: Induction of apoptosis in human Hep3B cells assessed as […] level at upto 25 nM incubated for 48 hrs by Western blot analysis; assay type: functional, cell-based
Hep 3B2 [12] = assay: Induction of apoptosis in human Hep3B cells assessed as viable cells at 25 nM incubated for 48 hrs in presence of chloroquine by Annexin V-FITC/PI staining based flow cytometry method (reference value: 94.0%); assay type: functional; details: read-out: Activity
Hep 3B2 [13] = assay: Induction of autophagy in human Hep3B cells assessed as reduction in mTOR phosphorylation level incubated for 48 hrs by immunoblot method; assay type: functional, cell-based; details: dose 0-25 nM
Hep 3B2 [14] = assay: Induction of autophagic flux in human Hep3B cells assessed as decrease in p62 expression at upto 25 nM incubated for 48 hrs by Western blot analysis; assay type: functional, cell-based
Hep 3B2 [15] = assay: Induction of apoptosis in human Hep3B cells assessed as increase in cleaved PARP expression at upto 25 nM incubated for 48 hrs by Western blot analysis; assay type: functional, cell-based
Huh-7 [16] = assay: Induction of apoptosis in human Huh-7 cells assessed as necrotic cells at 25 nM incubated for 48 hrs by Annexin V-FITC/PI staining based flow cytometry method (reference value: 95.4%); assay type: functional
Huh-7 [17] = assay: Induction of autophagy in human Huh-7 cells assessed as downregulation of LC3II/LC3I ratio at 25 uM incubated for 48 hrs in presence of 4,6-dimorpholino-N-(4-nitrophenyl)-1,3,5-triazin-2-amine by immunoblot analysis; assay type: functional, cell-based
[18] = Toxicity in mouse assessed as effect on serum BUN level at 5 mg/kg,ip administered every second day for 3 weeks by H and E staining based microscopic method; assay type: organism-based; details: in vivo, 504 h
Huh-7 [19] = assay: Induction of autophagic flux in human Huh-7 cells harbouring mCherry-egfp-LC3 assessed as increase in red puncta at 25 nM incubated for 15 mins by laser scanning confocal microscopic analysis; assay type: functional, cell-based
Huh-7 [20] = assay: Induction of apoptosis in human Huh-7 cells assessed as early apoptotic cells at 25 nM incubated for 48 hrs by Annexin V-FITC/PI staining based flow cytometry method (reference value: 2.8%); assay type: functional
Huh-7 [21] = assay: Induction of autophagy in human Huh-7 cells assessed as reduction in ULK1 phosphorylation level incubated for 48 hrs by immunoblot method; assay type: functional, cell-based; details: dose 0-25 nM
Hep 3B2 [22] = assay: Induction of apoptosis in human Hep3B cells assessed as increase in PARP expression at upto 25 nM incubated for 48 hrs by Western blot analysis; assay type: functional, cell-based
Hep 3B2 [23] = assay: Antitumor activity against human Hep3B cells xenografted in nude mouse model assessed as downregulation of m-TOR phosphorylation expression expression at 5 mg/kg,ip administered every second day for 3 weeks by Western blot analysis; assay type: functional, organism-based
Huh-7 [24] = assay: Induction of autophagic flux in human Huh-7 cells harbouring mCherry-egfp-LC3 assessed as increase in yellow puncta at 25 nM incubated for 15 mins by laser scanning confocal microscopic analysis; assay type: functional, cell-based
Huh-7 [25] = assay: Induction of apoptosis in human Huh-7 cells assessed as increase in cleaved PARP expression at upto 25 nM incubated for 48 hrs by Western blot analysis; assay type: functional, cell-based
Huh-7 [26] = assay: Induction of morphological changes in human Huh-7 cells assessed as round cell morphology at upto 25 nM incubated for 48 hrs by bright field imaging analysis; assay type: functional, cell-based
Hep 3B2 [27] = assay: Antitumor activity against human Hep3B cells xenografted in nude mouse model assessed as upregulation of cleaved caspase-3 expression at 5 mg/kg,ip administered every second day for 3 weeks by Western blot analysis; assay type: functional, organism-based
Huh-7 [28] = assay: Induction of autophagy in human Huh-7 cells harbouring mCherry-egfp-LC3 assessed as reduction in yellow puncta ratio at 25 nM incubated for 15 mins in presence of 4,6-dimorpholino-N-(4-nitrophenyl)-1,3,5-triazin-2-amine by laser scanning confocal microscopic analysis; assay type: functional, cell-based
Hep 3B2 [29] = assay: Antitumor activity against human Hep3B cells xenografted in nude mouse model assessed as upregulation of caspase-3 expression at 5 mg/kg,ip administered every second day for 3 weeks by Western blot analysis; assay type: functional, organism-based
Hep 3B2 [30] = assay: Induction of apoptosis in human Hep3B cells assessed as upregulation of caspase-3 level […] incubated for 48 hrs in presence of 4,6-dimorpholino-N-(4-nitrophenyl)-1,3,5-triazin-2-amine by immunoblot analysis; assay type: functional, cell-based
Hep 3B2 [31] = assay: Induction of apoptosis in human Hep3B cells assessed as necrotic cells at 25 nM measured after 48 hrs in presence of Z-VAD-FMK by annexin V-FITC/Propidium iodide staining based flow cytometric analysis (reference value: 0.3%); assay type: functional
Hep 3B2 [32] = assay: Induction of apoptosis in human Hep3B cells assessed as increase in cleaved bax level at 25 nM incubated for 48 hrs in presence of chloroquine by immunoblot analysis; assay type: functional, cell-based
Hep 3B2 [33] = assay: Induction of apoptosis in human Hep3B cells assessed as necrotic cells at 25 nM incubated for 48 hrs in presence of 4,6-dimorpholino-N-(4-nitrophenyl)-1,3,5-triazin-2-amine by Annexin V-FITC/PI staining based flow cytometry method (reference value: 0.7%); assay type: functional

CCN(CC)CCCC(C)Nc1ccnc2cc(Cl)ccc12 (stereo not drawn) [CHLOROQUINE]
Activity (Huh-7 [1]): 4.9%
Activity (Hep 3B2 [2]): Active
Activity (Huh-7 [3]): 3.4%
viability at 0.01 µM (Huh-7 [4]): 65.4%
Activity (Huh-7 [5]): 19.1%
Activity (Hep 3B2 [6]): Active

C[C@]12CC[C@H](O)C[C@H]1CC[C@@H]1[C@@H]2[C@H](O)C[C@]2(C)[C@@H](c3ccc(=O)oc3)CC[C@]12O [GAMABUFOTALIN]
Activity (Hep 3B2 [7]): Active
Activity (Huh-7 [8]): Active
Activity (Huh-7 [9]): Active
Activity (Huh-7 [10]): 12.1%
Activity (Hep 3B2 [11]): Active
viability at 0.025 µM (Hep 3B2 [12]): 63.9%
Activity (Hep 3B2 [13]): Dose-Dependent Effect
Activity (Hep 3B2 [14]): Active
Activity (Hep 3B2 [15]): Active
Activity (Huh-7 [16]): 57.1%
Activity (Huh-7 [17]): Active
Activity [18]: Non-Toxic
Activity (Huh-7 [19]): Active
Activity (Huh-7 [20]): 8.7%
Activity (Huh-7 [21]): Dose-Dependent Effect
Activity (Hep 3B2 [22]): Active
Activity (Hep 3B2 [23]): Active
Activity (Huh-7 [24]): Active
Activity (Huh-7 [25]): Active
Activity (Huh-7 [26]): Active
Activity (Hep 3B2 [27]): Active
Activity (Huh-7 [28]): Active
Activity (Hep 3B2 [29]): Active
Activity (Hep 3B2 [30]): Active
Activity (Hep 3B2 [31]): 0.3%
Activity (Hep 3B2 [32]): Active
Activity (Hep 3B2 [33]): 1.7%
